Entries after “also recorded” stand apart in the source; their conditions may differ. Values belong to the molecule of their own block, whether it stands above or below them.
Columns and labels:
[1] = molecular target: T1, NIK (Homo sapiens, UniProt Q99558); experiment: NIK enzyme inhibition assay (Transcreener ADP, fluorescence polarization); assay type: biochemical; conditions: for NIK enzyme inhibition, rank among the 4 stereoisomers: in words, four separated stereoisomers of Example 1
T1 construct: made in house; host or cells: baculovirus-infected insect cells
Protocol: The ability of the nuclear factor-kappa B (NF-kB)-inducing kinase (NIK) to catalyze the hydrolysis of adenosine-5′-triphosphate (ATP) was monitored using the Transcreener ADP (adenosine-5′-diphosphate) assay (BellBrook Labs). Purified NIK (0.5 nM) derived from a baculovirus-infected insect cell expression system was incubated with test compounds for 1-3.5 hours in 50 mM 2-[4-(2-hydroxyethyDpiperazin-1-yl]ethanesulfonic acid buffer (pH 7.2) containing 10 mM MgCl2, 2 mM dithiothreitol, 10 μM ATP, 0.01% Triton X-100, 0.1% gamma-globulins from bovine blood, 1% dimethylsulfoxide (DMSO), 7 μg/mL ADP antibody and 5 nM ADP-MR121 633 tracer. Reactions were quenched by the addition of 20 mM 2,2′,2″, 2″′-(ethane-1,2-diyldinitrilo)tetraacetic acid and 0.01% Brij 35. The tracer bound to the antibody was displaced by the ADP generated during the NIK reaction, which causes a decrease in fluorescence polarization that was measured by laser excitation at 633 nm with a Fluorescence Correlation Spectroscopy Plus reader (Evotec AG). Equilibrium dissociation constant (Ki) values for NIK inhibitors are calculated from plots of activity vs. inhibitor concentration using Morrison's quadratic equation that accounts for the potential of tight binding, and by also applying the conversion factor that accounted for competitive inhibition and the concentration of substrate used in the assay relative to its Michaelis constant (Km).

[2] = test system: REL-A (p65) nuclear translocation, classical NF-kB signaling, HUVEC; experiment: REL-A HUVEC nuclear translocation assay; assay type: cell-based; conditions: Homo sapiens, TNF-α 2 ng/mL stimulation
Protocol: (§1) (2) A second set of cell assays used primary human umbilical vein cells (HUVEC) sourced from Lonza to define the selectivity of NIK inhibitors toward inhibition of classical vs. non-classical NF-kB signaling using high content cellular imaging. For the p52 (non-classical NF-kB signaling) nuclear translocation assay, HUVEC were treated with different concentrations of compounds (0.2% DMSO final) in EBM-2 medium (LONZA) containing 2% fetal bovine serum and then stimulated with 300 ng/mL of an anti-lymphotoxin beta receptor antibody (R&D Systems) for 4.5 hours. In the REL-A nuclear translocation assay, HUVEC were incubated with compounds (0.2% DMSO final) for 4 hours 50 minutes in EBM-2 medium containing 2% fetal bovine serum before stimulating them with 2 ng/mL tumor necrosis factor (TNF)-α (R&D Systems) for 10 minutes. Cells were fixed with 4% paraformaldehyde, permeabilized by adding 0.1% Triton X-100 in phosphate buffered saline, and then were incubated with either 2 μg/mL anti-p52 antibody (Millipore) or 400 ng/mL anti-REL-A (p65) antibody (Santa Cruz Biotechnology). […] Imaging was carried out using an Opera reader (Perkin Elmer) and data were analyzed with the aid of Acapella software (Perkin Elmer). The p52 or REL-A translocation into the nucleus was quantified by the ratio of the nuclear to cytoplasmic signal intensity.

[3] = test system: p52 nuclear translocation, non-classical NF-kB signaling, HUVEC; experiment: p52 HUVEC nuclear translocation assay; assay type: cell-based; conditions: Homo sapiens, anti-lymphotoxin beta receptor antibody 300 ng/mL
Protocol: as §1

[4] = Liver microsome stability; assay type: in vitro ADME, human
Protocol: General. Metabolic stability assays in liver microsomes are conducted with pooled female CD-1 mouse, male Sprague-Dawley rat, male beagle dog, male cynomolgus monkey, and mixed male and female human liver microsomal incubations. The general assay conditions are as follows. Incubation mixtures consisted of liver microsomes (0.5 mg of microsomal protein/ml) and the test compound (1.0 μM) with or without NADPH (1.0 mM) in the potassium phosphate buffer (100 mM; pH 7.4) with a final incubation volume of 0.25 ml. Reactions are initiated by the addition of NADPH or buffer and shaken in a water bath open to the air at 37° C. At times 0, 20, 40, and 60 min, aliquots (50 μl) are removed and added to termination mixtures (100 μl) containing acetonitrile and an internal standard. The samples are then centrifuged for 10 min at 2000 g. The supernatant (90 μl) is removed, combined with 180 μl of water, and analyzed by LC-MS/MS.
Metabolic stability of the test compounds were evaluated in human liver microsomes following known protocols described in Halladay, et al. Drug Metabol. Lett. 2007, 1:67-72.

[5] = Hepatocyte stability; assay type: in vitro ADME, human
Protocol: General. Metabolic stability assays in hepatocytes are conducted using cryopreserved pooled female CD-1 mouse, male Sprague-Dawley rat, male beagle dog, male cynomolgus monkey, and mixed male and female human hepatocytes (CellzDirect). Vials of hepatocytes are thawed rapidly in a water bath set at 37° C. and then are diluted with Dulbecco's modified Eagle's medium (DMEM), pH 7.4. Cells are isolated by centrifugation, pooled, and resuspended in DMEM at 1.0 million viable cells/ml. Membrane integrity of the cells is assessed by trypan blue exclusion. The test compound is dissolved in dimethyl sulfoxide at a final concentration of […]. This test compound stock is diluted further to 2 μM in DMEM (125 μl) before the addition of an equal volume of the 10^6 cells/ml cell suspension. The test compound (final incubation concentration of 1.0 μM with 0.1% dimethyl sulfoxide) and cells (final concentration of 0.5×10^6 cells/ml) are incubated at 37° C. in a 95% air/5% CO2 atmosphere for 3 h. Aliquots (50 μl) are removed at 0, 1, 2, and 3 hours and added to termination mixtures (100 μl) containing acetonitrile and an internal standard. […] The supernatant (90 μl) is removed, combined with 180 μof water, and analyzed by LC-MS/MS.
Metabolic stability of the test compounds were evaluated also in human hepatocytes, following protocols described in Hallifax, et al. Drug Metabol. […]

T1 sequence (Q99558 whole entry): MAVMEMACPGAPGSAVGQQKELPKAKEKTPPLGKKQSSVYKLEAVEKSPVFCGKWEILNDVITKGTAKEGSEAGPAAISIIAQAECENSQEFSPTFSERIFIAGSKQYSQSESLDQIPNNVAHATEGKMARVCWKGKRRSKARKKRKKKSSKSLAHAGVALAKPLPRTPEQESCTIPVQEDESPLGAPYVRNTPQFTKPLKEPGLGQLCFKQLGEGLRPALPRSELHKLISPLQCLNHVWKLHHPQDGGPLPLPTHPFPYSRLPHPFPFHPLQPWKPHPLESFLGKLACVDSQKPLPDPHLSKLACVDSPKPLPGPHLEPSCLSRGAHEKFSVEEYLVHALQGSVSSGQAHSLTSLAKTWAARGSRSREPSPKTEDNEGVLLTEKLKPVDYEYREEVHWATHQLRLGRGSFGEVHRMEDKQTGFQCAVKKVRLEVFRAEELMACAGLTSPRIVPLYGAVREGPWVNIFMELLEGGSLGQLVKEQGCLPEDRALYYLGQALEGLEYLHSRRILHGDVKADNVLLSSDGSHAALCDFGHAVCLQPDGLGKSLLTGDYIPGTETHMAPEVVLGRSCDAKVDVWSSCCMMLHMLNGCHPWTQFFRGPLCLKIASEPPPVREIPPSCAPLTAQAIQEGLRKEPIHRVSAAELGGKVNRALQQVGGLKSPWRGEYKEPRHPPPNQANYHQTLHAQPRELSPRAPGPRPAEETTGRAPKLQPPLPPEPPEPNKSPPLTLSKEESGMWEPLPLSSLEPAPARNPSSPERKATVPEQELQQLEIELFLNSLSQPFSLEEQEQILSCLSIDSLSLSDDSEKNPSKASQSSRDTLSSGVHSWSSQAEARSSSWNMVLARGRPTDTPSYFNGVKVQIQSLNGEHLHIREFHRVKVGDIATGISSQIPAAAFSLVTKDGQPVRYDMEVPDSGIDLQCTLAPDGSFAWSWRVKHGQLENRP

Compound: CN1C(=O)[C@@](O)(C#Cc2cccc(-c3cccc(C(N)=O)n3)c2)[C@H]2C[C@H]21 (single isomer, unassigned)
NIK enzyme inhibition, rank among the 4 stereoisomers [1]: third most potent NIK enzyme inhibitor among the 4 stereoisomers

Compound: CN1C(=O)[C@](O)(C#Cc2cccc(-c3cccc(C(N)=O)n3)c2)[C@@H]2C[C@@H]21 (single isomer, unassigned)
NIK enzyme inhibition, rank among the 4 stereoisomers [1]: second most potent NIK enzyme inhibitor among the 4 stereoisomers

NIK enzyme inhibition, rank among the 4 stereoisomers [1]: no measurable inhibition
Compound: CN1C(=O)[C@@](O)(C#Cc2cccc(-c3cccc(C(N)=O)n3)c2)[C@@H]2C[C@@H]21 (single isomer, unassigned)

Ki ([1]; purified NIK 0.5 nM, 10 μM ATP, read-out: NIK ADP-FP Ki): 0.4 nM
HLM CL (human liver microsome clearance) ([4]; human liver microsomes): 1.2 mL/min/kg
Hep CL (human hepatocyte clearance) ([5]; human hepatocytes): 4.1 mL/min/kg
stability in the human hepatocyte assay compared with the corresponding comparator compound ([5]; in words, versus comparators C-1, C-3, C-5): better stability
Compound: CN1C(=O)[C@](O)(C#Cc2cccc(-c3cccc(C(N)=O)n3)c2)[C@H]2C[C@H]21 (single isomer, unassigned) [Compound 1]
IC50 [2]: > 5000 nM
IC50 [3]: 93 nM
NIK enzyme inhibition, rank among the 4 stereoisomers [1]: most potent NIK enzyme inhibitor among the 4 stereoisomers
stability in human liver microsomes compared with the respective pyrrolidinone comparator compound ([4]; in words, versus comparators C-1, C-3, C-4, C-5, C-6): lower clearance; also recorded: better stability

From patent US10654824B2, “2-azabicyclo[3.1.0]hexan-3-one derivatives and methods of use” (Genentech, Inc., priority 2016, dated 2020)
